This note sets out measurements from ChEMBL document CHEMBL5346960, “Quantitative Attribution of the Protective Effects of Aminosterols against Protein Aggregates to Their Chemical Structures and Ability to Modulate Biological Membranes” (2023).

Molecules are shown by their SMILES. Active and inactive are the calls of the source. The calls are words filed in the database; no cut-off is given here.

In experiment [1] the test system is Lipid bilayer. The experiment can be described thus: Induction of membrane redistribution in large unilamellar vesicles liposome model assessed as mean shortest distance between BODIPY-FL-DOPC and BODIPY-542/563 C11-CHOL at 5 uM by FRET assay (reference value: 70 +/- 2 Angstrom). The conditions noted are these: filed as modulator.
Experiment [2] deals with Lipid bilayer. The experiment is described as follows: Induction of membrane redistribution in large unilamellar vesicles liposome model assessed as mean shortest distance between BODIPY-FL C5-GM1 and BODIPY-542/563 C11-CHOL at 5 uM by FRET assay relative to control. The conditions noted are these: filed as modulator.
Experiment [3] concerns Lipid bilayer. The experiment can be described thus: Induction of membrane redistribution in large unilamellar vesicles liposome model assessed as mean shortest distance between BODIPY-FL-CHOL and BODIPY-542/563 C11-CHOL at 5 uM by FRET assay (reference value: 72 +/- 1 Angstrom). The conditions noted are these: filed as modulator.
The test system of experiment [4] is Lipid bilayer. The experiment is described as follows: Binding affinity to large unilamellar vesicles liposome model assessed as increase in LUV size incubated for 15 mins by light scattering analysis. As to conditions: filed as modulator.
Experiment [5] concerns SH-SY5Y. The experiment can be described thus: Protection against human SH-SY5Y cells assessed as decrease in ADDL-induced cytosolic calcium level incubated for 15 mins by Fluo-4 AM dye based scanning confocal microscopic analysis. Format: functional, cell-based. As to conditions: dose 0.05-5 µM.
Experiment [6] has as its system Lipid bilayer. The experiment is described as follows: Induction of membrane redistribution in large unilamellar vesicles liposome model assessed as mean shortest distance between BODIPY-FL C5-GM1 and BODIPY-542/563 C11-CHOL at 5 uM by FRET assay (reference value: 65 +/- 1 Angstrom). As to conditions: filed as modulator.
For experiment [7], the system named is Lipid bilayer. The experiment can be described thus: Displacement of alpha-synuclein from DMPS large unilamellar vesicles liposome model incubated for 15 mins by Far-UV CD spectroscopy. The conditions noted are these: filed as modulator, dose <= 70.0 µM.
Experiment [8] has as its system Lipid bilayer. The experiment can be described thus: Binding affinity to large unilamellar vesicles liposome model assessed as saturation concentration by measuring increase in incorporated compound mass incubated for 15 mins by light scattering analysis. The conditions noted are these: filed as modulator.
The test system of experiment [9] is Lipid bilayer. The experiment can be described thus: Binding affinity to large unilamellar vesicles liposome model assessed as increase in transition temperature […] (reference value: 24.5 +/- 2 degreeC). The conditions noted are these: filed as modulator.
Experiment [10] has as its system Lipid bilayer. The experiment is described as follows: Binding affinity to large unilamellar vesicles liposome model assessed as saturation concentration by measuring increase in LUV mass incubated for 15 mins by light scattering analysis. The conditions noted are these: filed as modulator.
In experiment [11] the test system is Lipid bilayer. The experiment is described as follows: Binding affinity to large unilamellar vesicles liposome model assessed as increase in LUV diameter incubated for 15 mins by light scattering analysis.
The test system of experiment [12] is Lipid bilayer. The experiment can be described thus: Induction of membrane redistribution in large unilamellar vesicles liposome model assessed as mean shortest distance between BODIPY-FL-CHOL and BODIPY-542/563 C11-CHOL at 5 uM by FRET assay relative to control. The conditions noted are these: filed as modulator.
The test system of experiment [13] is SH-SY5Y. The experiment is described as follows: Protection against human SH-SY5Y cells assessed as decrease in ADDL-induced cytosolic calcium level at 5 uM incubated for 15 mins by Fluo-4 AM dye based scanning confocal microscopic analysis. Also on record: scale not given: the % may be the effect or the level left. The conditions noted are these: 0.25 h. Format: functional.

The test system of experiment [14] is Lipid bilayer. The experiment is described as follows: Induction of membrane redistribution in large unilamellar vesicles liposome model assessed as mean shortest distance between BODIPY-FL-SM and BODIPY-542/563 C11-CHOL at 5 uM by FRET assay (reference value: 69 +/- 1 Angstrom). The conditions noted are these: filed as modulator.
The subject of experiment [15] is Lipid bilayer. The experiment can be described thus: Binding affinity to large unilamellar vesicles liposome model assessed as saturation concentration by microfluidic analysis. As to conditions: filed as modulator.

Consider `C[C@H](CCC[C@H](C)C(=O)O)[C@H]1CC[C@H]2[C@@H]3[C@H](O)C[C@H]4C[C@@H](NCCCNCCCCNCCCN)CC[C@]4(C)[C@H]3CC[C@]12C`, for which the Activity with Lipid bilayer [1] is 67 Angstrom; in the experiment on Lipid bilayer [2], 57%; in the experiment with Lipid bilayer [3] it was 63 Angstrom; with SH-SY5Y [5] it was “Dose-Dependent Effect”; in the experiment with Lipid bilayer [6], 73 Angstrom; in the experiment with Lipid bilayer [7] it was “Dose-Dependent Effect”. Moreover, the Activity worked out at 43 µM in the experiment on Lipid bilayer [8]; 43 µM in the experiment on Lipid bilayer [10]; 64% in the experiment on Lipid bilayer [12]; 100% with SH-SY5Y [13]; 69 Angstrom in the experiment on Lipid bilayer [14]. For the same compound, the outcome with Lipid bilayer [4] was Active. Also, the T in the experiment with Lipid bilayer [9] was found to be 46 °C. The outcome in the experiment on Lipid bilayer [11] was inactive.
For the compound `CC(C)[C@@H](CC[C@@H](C)[C@H]1CC[C@H]2[C@@H]3[C@H](O)C[C@H]4C[C@@H](NCCCNCCCCN)CC[C@]4(C)[C@H]3CC[C@]12C)OS(=O)(=O)O` [SQUALAMINE], the Activity was 68 Angstrom in the experiment with Lipid bilayer [1]; 50% with Lipid bilayer [2]; 64 Angstrom in the experiment with Lipid bilayer [3]; “Dose-Dependent Effect” in the experiment with SH-SY5Y [5]; 72 Angstrom in the experiment with Lipid bilayer [6]; “Dose-Dependent Effect” in the experiment with Lipid bilayer [7]. Also, the Activity in the experiment on Lipid bilayer [8] is 15 µM; in the experiment on Lipid bilayer [10] it was 12 µM; in the experiment on Lipid bilayer [12] it was 57%; with SH-SY5Y [13], 100%; in the experiment with Lipid bilayer [14], 72 Angstrom. Moreover, the result with Lipid bilayer [4] was Active. Besides, in the experiment on Lipid bilayer [9], the T turned out to be 35 °C. For the same compound, the outcome in the experiment on Lipid bilayer [11] was inactive.
In the case of `CC(C)[C@@H](CC[C@@H](C)[C@H]1CC[C@H]2[C@@H]3[C@H](O)C[C@H]4C[C@@H](NCCCNCCCCNCCCN)CC[C@]4(C)[C@H]3CC[C@]12C)OS(=O)(=O)O` [TRODUSQUEMINE], the Activity in the experiment on Lipid bilayer [1] is 68 Angstrom; in the experiment with Lipid bilayer [2] it was 100%; in the experiment with Lipid bilayer [15], 28 µM; in the experiment with Lipid bilayer [3] it was 58 Angstrom; in the experiment on SH-SY5Y [5], “Dose-Dependent Effect”; in the experiment with Lipid bilayer [6] it was 79 Angstrom. In addition, the Activity entry in the experiment on Lipid bilayer [7] was “Dose-Dependent Effect”; in the experiment on Lipid bilayer [8], 35 µM; in the experiment on Lipid bilayer [10], 35 µM; in the experiment on Lipid bilayer [12] it was 100%; in the experiment with SH-SY5Y [13] it was 100%; in the experiment on Lipid bilayer [14] it was 67 Angstrom. Further, in the experiment with Lipid bilayer [4], the outcome was Active. In the experiment with Lipid bilayer [9], the T was determined as 46 °C. For the same compound, the outcome in the experiment on Lipid bilayer [11] was inactive.
